Results on twelve compounds are retold here after ChEMBL document CHEMBL1201862, “PubChem BioAssay data set” (2004).

Structures are written as SMILES.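 Each compound was tested at five concentrations against cells in 96-well plates for 48 hours. Here, GI50 denotes the concentration required for 50% inhibition of growth.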 Activity calls are given as the source filed them. Cut-off read from the data, not from the text of the source: active = GI50 up to about 1.1 µM and inactive = higher.

Some test systems named below: A498; A549; ACHN; CCRF-CEM; COLO 205; HOP-92; LOX IMVI; MCF7; NCI-H226; OVCAR-5; PC-3; RPMI-8226; SF-295; SK-MEL-5; SN12C; SNB-19; SNB-75; SR; HCC 2998.
Holding throughout (assay): NCI anticancer screen, dose series, 48 h

For `Cc1cc(NS(=O)(=O)c2ccc(/N=[N+](\[O-])c3ccc(S(=O)(=O)Nc4cc(C)on4)cc3)cc2)no1`, the GI50 in the assay with A498, in the assay on A549, with ACHN, in the assay on CCRF-CEM, in the assay with COLO 205 and with HOP-92 was > 100 µM (inactive) each time. Also, the GI50 with LOX IMVI, with MCF7, with NCI-H226, in the assay on OVCAR-5, with PC-3 and in the assay with RPMI-8226 was > 100 µM (inactive) in each case. Besides, the GI50 in the assay with SF-295, in the assay with SK-MEL-5, with SN12C, in the assay with SNB-19, with SNB-75 and in the assay with SR was > 100 µM (inactive) throughout.
Consider `O=[N+]([O-])c1cc(Cl)c(Cl)cc1[N+](=O)[O-]`, for which the GI50 in the assay on A498 was 18.5 µM (inactive); with A549, 2.29 µM (inactive); in the assay on ACHN, 2.56 µM (inactive); in the assay on CCRF-CEM, 5.94 µM (inactive); in the assay on COLO 205, 5.77 µM (inactive); with LOX IMVI, 2.37 µM (inactive). Also, the GI50 was 2.06 µM (inactive) in the assay on MCF7; 3.89 µM (inactive) in the assay with NCI-H226; 2.51 µM (inactive) with OVCAR-5; 1.74 µM (inactive) in the assay with PC-3; 4.17 µM (inactive) in the assay with RPMI-8226; 3.08 µM (inactive) with SF-295. The GI50 was 14.6 µM (inactive) in the assay with SK-MEL-5, 1.91 µM (inactive) in the assay on SN12C, 3.6 µM (inactive) with SNB-75 and 1.89 µM (inactive) in the assay with SR.
Regarding `O=C(CCc1ccc(O)cc1)NCCc1cccc(OCc2ccccc2)c1`, the GI50 was 55.8 µM (inactive) in the assay with A498; 40.1 µM (inactive) in the assay with A549; 33.2 µM (inactive) in the assay with ACHN; 2.96 µM (inactive) in the assay with CCRF-CEM; 49.4 µM (inactive) in the assay with COLO 205; 24.4 µM (inactive) with HCC 2998. For the same compound, the GI50 was 23.6 µM (inactive) with HOP-92; 15.6 µM (inactive) with LOX IMVI; 27.9 µM (inactive) in the assay on MCF7; 29 µM (inactive) in the assay with NCI-H226; 43.5 µM (inactive) in the assay with OVCAR-5; 20.1 µM (inactive) in the assay on PC-3. Besides, the GI50 is 30.3 µM (inactive) in the assay on SF-295; 17.4 µM (inactive) in the assay on SK-MEL-5; 75.3 µM (inactive) in the assay with SN12C; 69 µM (inactive) with SNB-19; 15.4 µM (inactive) with SR.
As for `Cc1ccccc1/N=N/c1c(O)c(S(=O)(=O)O)cc2cc(S(=O)(=O)O)ccc12`, the GI50 with A498, with A549, in the assay on ACHN, in the assay with CCRF-CEM, with COLO 205 and in the assay on HCC 2998 was > 100 µM (inactive) in each case. For the same compound, the GI50 with HOP-92, with MCF7, in the assay on NCI-H226, with OVCAR-5, in the assay with PC-3 and in the assay with SF-295 was > 100 µM (inactive) each time. In addition, the GI50 in the assay on SK-MEL-5 was > 100 µM (inactive); in the assay on SN12C it was > 100 µM (inactive); with SNB-19, > 100 µM (inactive); in the assay on SNB-75, 70.1 µM (inactive); in the assay with SR, > 100 µM (inactive).
For the compound `CC(=O)OCCN(C1=NCCN1)/[N+](C=c1ccc(=C=[N-])cc1)=C/c1ccc(C#N)cc1`, the GI50 with A549, in the assay on ACHN, with CCRF-CEM, with COLO 205, in the assay on HCC 2998 and in the assay with LOX IMVI was > 100 µM (inactive) each time. For the same compound, the GI50 in the assay on MCF7, in the assay on NCI-H226, in the assay with OVCAR-5, in the assay on PC-3, with SF-295 and with SK-MEL-5 was > 100 µM (inactive) throughout. Besides, the GI50 in the assay on SN12C, with SNB-19, with SNB-75 and in the assay on SR was > 100 µM (inactive) throughout.
Consider `Cc1c2c(n(CCc3ccc(Cl)cc3)c1C)NN=C(C#N)S2(=O)=O`, for which the GI50 in the assay on A549, in the assay on ACHN, with COLO 205, in the assay with HCC 2998, in the assay on LOX IMVI and in the assay with MCF7 was > 100 µM (inactive) in each case. In addition, the GI50 in the assay on NCI-H226, in the assay with OVCAR-5, with PC-3, with RPMI-8226, with SK-MEL-5 and in the assay on SN12C was > 100 µM (inactive) in each case. For the same compound, the results for the GI50 in the assay with SNB-19, in the assay with SNB-75 and with SR were > 100 µM (inactive), > 100 µM (inactive) and 61.9 µM (inactive), respectively.
On to `S=C(N/N=C/c1ccccn1)N1CC2CCC(CC2)C1`, for which the GI50 in the assay with A498 was 0.119 µM (active); with A549, < 0.01 µM (active); in the assay with ACHN it was < 0.01 µM (active); in the assay on CCRF-CEM it was < 0.01 µM (active); with COLO 205, < 0.01 µM (active); in the assay with HCC 2998, 0.0895 µM (active). Besides, the GI50 was 0.0568 µM (active) in the assay on HOP-92; < 0.01 µM (active) in the assay on LOX IMVI; < 0.01 µM (active) in the assay on MCF7; < 0.024 µM (active) with OVCAR-5; < 0.01 µM (active) with PC-3; < 0.01 µM (active) in the assay on RPMI-8226. Further, the GI50 is < 0.0128 µM (active) in the assay on SF-295; < 0.01 µM (active) in the assay on SK-MEL-5; < 0.0216 µM (active) with SN12C; 0.161 µM (active) with SNB-19; 0.2 µM (active) with SNB-75.
With `CCc1nc(N)nc(N)c1-c1ccc(Cl)c([N+]#N)c1`, the GI50 in the assay on A549 was 20.6 µM (inactive); in the assay with ACHN it was 39.4 µM (inactive); in the assay with COLO 205, 56 µM (inactive); in the assay on HOP-92 it was > 100 µM (inactive); in the assay on LOX IMVI, 46.5 µM (inactive); with MCF7, > 100 µM (inactive). The GI50 was > 100 µM (inactive) in the assay on NCI-H226; > 100 µM (inactive) in the assay on OVCAR-5; 61.7 µM (inactive) with PC-3; 0.564 µM (active) with RPMI-8226; 39 µM (inactive) with SF-295; 46.2 µM (inactive) with SK-MEL-5. For the same compound, the GI50 in the assay on SN12C is 50.6 µM (inactive); in the assay with SNB-19, > 100 µM (inactive); in the assay with SNB-75 it was > 100 µM (inactive); with SR it was 22.9 µM (inactive).
For `O=c1[nH]/c(=C/c2cccs2)c(=O)[nH]/c1=C/c1ccc(OCc2ccccc2)cn1`, the GI50 is 0.0374 µM (active) in the assay with A498; 0.144 µM (active) in the assay on A549; 3.24 µM (inactive) in the assay on ACHN; 0.0327 µM (active) with CCRF-CEM; 0.323 µM (active) in the assay with COLO 205; 0.0562 µM (active) in the assay on HCC 2998. Further, the GI50 with LOX IMVI is 57.1 µM (inactive); in the assay with MCF7, 0.0422 µM (active); in the assay on NCI-H226, 0.312 µM (active); in the assay with OVCAR-5, 3.87 µM (inactive); in the assay with PC-3, 0.0431 µM (active); with RPMI-8226, 0.0618 µM (active). Besides, the GI50 was 0.0206 µM (active) in the assay with SF-295; 0.0515 µM (active) in the assay with SK-MEL-5; 0.064 µM (active) in the assay with SN12C; 0.0661 µM (active) with SNB-19; 0.027 µM (active) with SNB-75; < 0.0142 µM (active) in the assay with SR.
On to `COc1ccc2[nH]c3c(C)c4cnccc4c(C)c3c2c1`, for which the GI50 with A549 was 1.85 µM (inactive); with ACHN, 2.01 µM (inactive); in the assay with CCRF-CEM, 2.07 µM (inactive); with COLO 205, 1.58 µM (inactive); in the assay with HCC 2998, 1.67 µM (inactive); in the assay on HOP-92, 5.4 µM (inactive). The GI50 was 1.52 µM (inactive) in the assay on MCF7; 1.4 µM (inactive) in the assay on NCI-H226; 3.11 µM (inactive) with OVCAR-5; 2.99 µM (inactive) in the assay on PC-3; 2.95 µM (inactive) in the assay on RPMI-8226; 3.3 µM (inactive) with SF-295. Moreover, the GI50 is > 10 µM (inactive) in the assay with SK-MEL-5; 2.24 µM (inactive) in the assay with SN12C; > 10 µM (inactive) in the assay on SNB-19; 2.25 µM (inactive) in the assay on SNB-75; 3.57 µM (inactive) in the assay with SR.
Consider `CCOC(=O)C(COS(C)(=O)=O)(COS(C)(=O)=O)C(=O)OCC`, for which the GI50 in the assay on A498 is 11.1 µM (inactive); in the assay on A549 it was > 100 µM (inactive); with ACHN, > 100 µM (inactive); in the assay on CCRF-CEM, > 100 µM (inactive); in the assay with COLO 205, > 100 µM (inactive); with HCC 2998, > 100 µM (inactive). Further, the GI50 in the assay with HOP-92, in the assay with LOX IMVI, with MCF7, in the assay on NCI-H226, in the assay on PC-3 and with SF-295 was > 100 µM (inactive) in each case. In addition, the GI50 in the assay with SK-MEL-5, with SN12C, in the assay on SNB-19, in the assay on SNB-75 and in the assay on SR was > 100 µM (inactive) each time.
In the case of `O=[N+]([O-])c1ccc(-c2nc3cc(Cl)ccc3[nH]2)cc1`, the GI50 is 42.3 µM (inactive) with A549; 50.1 µM (inactive) with ACHN; 32.9 µM (inactive) in the assay on COLO 205; 46.7 µM (inactive) with HOP-92; 46.2 µM (inactive) with LOX IMVI; 27.3 µM (inactive) in the assay with MCF7. For the same compound, the GI50 in the assay on NCI-H226 was 82.6 µM (inactive); in the assay with PC-3, 32.7 µM (inactive); in the assay with RPMI-8226 it was 25.5 µM (inactive); with SF-295 it was 39.2 µM (inactive); with SK-MEL-5, 51.4 µM (inactive); in the assay with SN12C, 43.6 µM (inactive). In addition, the GI50 with SNB-19 is 78.5 µM (inactive); with SNB-75 it was 73.5 µM (inactive); in the assay on SR, 34.6 µM (inactive).
